Experimental data taken from US9382226B2, “Aldosterone synthase inhibitors” (Merck Sharp & Dohme Corp., priority 2010, dated 2016).

What was measured:
human CYP11B2 = molecular target: T1, human CYP11B2 (Homo sapiens, UniProt P19099); test: V79-Human-CYP11B2 cell assay (aldosterone formation, HTRF); assay type: cell-based; settings: V79 cells stably expressing human CYP11B2; substrate 125 nM 11-deoxycorticosterone; 3 hours
T1 construct: expressed in transfected cells; host or cells: V79 cells (clone V79-hCYP11B2-CLE9)
T1 sequence (P19099 25-503): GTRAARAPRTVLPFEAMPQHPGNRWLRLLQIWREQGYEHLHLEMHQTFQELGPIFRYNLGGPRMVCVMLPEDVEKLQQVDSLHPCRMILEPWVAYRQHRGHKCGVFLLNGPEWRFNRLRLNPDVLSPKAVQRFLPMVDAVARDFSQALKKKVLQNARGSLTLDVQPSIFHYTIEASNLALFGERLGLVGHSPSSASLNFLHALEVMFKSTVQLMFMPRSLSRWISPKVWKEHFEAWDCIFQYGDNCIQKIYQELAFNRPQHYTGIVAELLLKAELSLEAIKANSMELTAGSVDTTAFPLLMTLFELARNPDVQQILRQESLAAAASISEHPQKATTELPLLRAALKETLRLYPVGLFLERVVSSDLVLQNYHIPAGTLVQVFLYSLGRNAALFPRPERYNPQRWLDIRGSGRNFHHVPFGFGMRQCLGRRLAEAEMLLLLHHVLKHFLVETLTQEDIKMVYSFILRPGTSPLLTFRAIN
Description: (§1) Methods for V79-Human-CYP11B2 and V79-Human-CYP11B1 Assays: V79 cell lines stably expressing the either the human CYP11B2 or the human CYP11B1 enzyme were generated using a standard transfection protocol. V79 cells were transfected with plasmids pTriEx3-Hygro-hCyp11B2 or pTriEx3-Hygro-hCyp11B1 using Lipofectamine2000 reagent. V79 cells that stably express the human CYP11B2 or human CYP11B1 enzyme were selected for and maintained in DMEM supplemented with 10% FBS and 400 μg/mL hygromycin for ˜2 weeks. Single cell clones were generated by […] in DMEM supplemented with 10% FBS and 400 μg/mL hygromycin until single colonies were obtained. Clones V79-hCYP11B2-CLE9 and V79-hCYP11B1-8C7, were determined to produce the most aldosterone and cortisol, respectively, and were selected for inhibitor screening. For testing of inhibitors, cells were harvested at 80% confluency with 0.5% Trypsan-EDTA, washed once in PBS, and reconstituted in DMEM 0.1% BSA media at a cell concentration of 400,000 cells/mL. 25 μl of cells were added to a 384 well tissue culture treated plate and mixed with 0.25 μl of inhibitor or DMSO (1% final DMSO concentration) for 1 hour at 37° C., 5% CO2. After pre-incubation with inhibitor, the reaction was initiated by adding 5 μl of substrate (final concentration of 125 nM 11-deoxycorticosterone for the CYP11B2 assay or 250 nM 11-deoxycortisol for the CYP11B1 assay). The reaction was carried out for 3 hours at 37° C., 5% CO2 and was stopped by harvesting the supernatants. The amount of product in the supernatant (aldosterone for CYP11B2 assay and cortisol for the CYP11B1 assay) was measured using HTRF-based assay kit (Aldosterone HTRF-CisBio#64ALDPEB, Cortisol HTRF-CisBio #63IDC002-CORT). IC50's for the inhibitor were determined by plotting the amount of product formed against the concentration of inhibitor using sigmoidal dose-response curve (variable slope) fit in GraphPad.

human CYP11B1 = molecular target: T2, human CYP11B1 (Homo sapiens, UniProt P15538); test: V79-Human-CYP11B1 cell assay (cortisol formation, HTRF); assay type: cell-based; settings: V79 cells stably expressing human CYP11B1; substrate 250 nM 11-deoxycortisol; 3 hours
T2 construct: expressed in transfected cells; host or cells: V79 cells (clone V79-hCYP11B1-8C7)
T2 sequence (P15538 25-503): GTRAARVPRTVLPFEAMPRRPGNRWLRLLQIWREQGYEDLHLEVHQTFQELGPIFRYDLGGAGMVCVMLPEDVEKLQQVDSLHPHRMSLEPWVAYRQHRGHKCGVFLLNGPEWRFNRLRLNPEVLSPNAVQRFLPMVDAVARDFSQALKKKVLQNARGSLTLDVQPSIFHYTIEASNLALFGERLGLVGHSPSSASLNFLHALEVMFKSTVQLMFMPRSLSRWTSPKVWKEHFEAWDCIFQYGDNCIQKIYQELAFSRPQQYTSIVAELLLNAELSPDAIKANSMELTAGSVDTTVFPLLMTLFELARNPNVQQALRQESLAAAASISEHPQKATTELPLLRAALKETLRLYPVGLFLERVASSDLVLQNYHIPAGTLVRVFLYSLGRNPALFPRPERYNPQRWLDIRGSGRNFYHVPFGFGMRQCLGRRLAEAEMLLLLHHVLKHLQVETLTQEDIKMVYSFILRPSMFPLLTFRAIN
Description: as §1, with “Clones V79-hCYP11B2-CLE9 and V79-hCYP11B1-8C7, were determined to produce the most aldosterone and cortisol, respectively, and were selected for inhibitor screening.” left out, “After pre-incubation with inhibitor, the reaction was initiated by adding 5 μl of substrate (final concentration of 125 nM 11-deoxycorticosterone for the CYP11B2 assay or 250 nM 11-deoxycortisol for the CYP11B1 assay).” left out

| IC50 (human CYP11B2) [µM] | IC50 (human CYP11B1) [µM] | SMILES |
| --- | --- | --- |
| 0.00285 | 0.563 | Cn1c(-c2cnccc2C(F)(F)F)nc2cc(F)c(Cl)cc21 [Example 335, 6-chloro-5-fluoro-1-methyl-2-[4-(trifluoromethyl)pyridin-3-yl]-1H-benzimidazole] |
| 0.0005 | 0.0715 | Fc1cncc(-c2nc3cc(F)c(F)cc3n2OCc2ccccc2)c1 [Example 373, 1-(benzyloxy)-5,6-difluoro-2-(5-fluoropyridin-3-yl)-1H-benzimidazole] |
